Experimental findings from patent US7008924B1, “VGF fusion polypeptides” (Amgen, Inc., priority 1999, dated 2006) are described below.

In the assay the test system is VGF knockout mice. The assay is described as follows: Biological activity of VGF polypeptide in knockout mice (body weight). The conditions noted are these: VGF gene knockout mice; intraperitoneal injection of 2 mg twice daily for five days; three of the four treated mice. The assay is classed as in vivo. The protocol:
The biological activity of VGF polypeptides in knockout mice was analyzed using VGF polypeptides synthesized by the Amgen Boulder Peptide Technology group using standard peptide synthesis protocols. Following peptide synthesis, VGF polypeptides from different batches were pooled and lyophilized. The peptide content for each VGF polypeptide was determined by hydrolysis with HCl.
VGF gene knockout mice were obtained from Steve Salton of Mt. Sinai School of Medicine, New York, N.Y. Prior to administration of VGF polypeptide, knockout mice were housed under LD 12:12 conditions (i.e., 12 hours of light and 12 hours of dark). Twenty-four hours before VGF polypeptide injection, knockout mice were individually caged and moved to a temporary housing room where the mice were kept for the remainder of the experiment under LD 12:12 conditions.
VGF polypeptide was administered to knockout mice twice daily (at 9:00 a.m. and 6:00 p.m.) by intraperitoneal injection of 2 mg of VGF-1a (SEQ ID NO: 2; Table I). Prior to injection, VGF-1a polypeptide was diluted to 16% in aCSF Solution Buffer (126.6 mM NaCl, 2.6 mM KCl, 2.0 mM MgCl2 and 1.4 mM CaCl2, 10 mM NaPO4, pH 7.4). Knockout mice were administered VGF-1a polypeptide for five days and the body weight of each mouse was measured daily. The body weight of treated mice was measured daily for three days following the withdrawal of VGF-1a polypeptide.

With “VGF-1a: VGF polypeptide, amino acid sequence AQEEADAEE (listed as Rattus norvegicus)”, the “gain in body weight” value is 10–15%.
